Here are results for 1 molecule from article PMC6222847, “Application of HPCCC Combined with Polymeric Resins and HPLC for the Separation of Cyclic Lipopeptides Muscotoxins A–C and Their Antimicrobial Activity” (Molecules : A Journal of Synthetic Chemistry and Natural …, 2018).

Data set [1] can be described thus: Partition coefficient (K) in two-phase HPCCC solvent systems. Format: physicochemical. To be noted: 2 mg extract in 2 mL (1 mL per phase), HPLC-ESI-HRMS. An excerpt: When working with HPCCC, the search for a proper two-phase solvent system has been informed to represent the major part of the work involved in the HPCCC separation. An appropriate two-phase solvent system for HPCCC has to provide a good partition coefficient (0.5 ≤ K ≤ 2.5) for the target compound. […] Additionally, for achieving a good resolution between two closely eluting peaks, the separation factor (α) between the two compounds (α = K2/K1, K2 > K1) should be greater than 1.5 [14, 26]. It is well described that compounds with smaller K values show a poor resolution because they elute closer to the solvent front. On the contrary, those compounds with larger K value are better separated but elute as wider peaks and at later elution times. In the present study, the capacity of different two-phase solvent systems (Table 1) to provide suitable K values of the compounds 1–3 was investigated. The K value is frequently estimated by using HPLC with UV detection, which is calculated by dividing the peak area of the target compound in the upper phase by that of the peak area of the same target compound in the lower phase. However, given that UV chromatogram provided insufficient peak areas for minor muscotoxins, the MS detector was thus used to estimate the K values. By using this approach, the peak area of the molecular ions corresponding to the target compounds were selectively monitored from the base peak chromatogram. As presented in the Table 1, the solvent system 10 (n-hexane, ethyl acetate, ethanol, and water in a ratio of 1:5:1:5) gave suitable K values and a proper separation factor (α) for compounds 2 and 3, as well as a short settling time. […] The improvement of the K value of compound 1 could be achieved by finding out a new solvent system or by modifying the composition of the already selected solvent system. In the present study, the system 10 was acidified by adding acetic acid leading to the system 11 (n-hexane, ethyl acetate, ethanol, water, and acetic acid, 1:5:1:5:1). […] Although the partition coefficients of the target compounds in systems 10 and 11 are strongly correlated, the system 10 ensured a sufficient selectivity (α = 1.5) between the compounds 2 and 3. […] In HPCCC, it is very well established that when the retention of stationary phase is increased, a good chromatographic resolution is achieved. A reduced flow rate of the mobile phase and a high rotational speed of the column favor the retention of the stationary phase inside the HPCCC column. In this study, the flow rate of the mobile phase in the first step and second step of the HPCCC operations was 1 mL/min and the rotational speed was set at 1200 rpm. Moreover, it was observed that a good resolution between the compounds 2 and 3 was achieved when injecting 100 mg of enriched extract.
Different two-phase solvent systems were prepared using n-hexane, ethyl acetate, ethanol, water, and acetic acid in different proportions (Table 1). The prepared solvent systems were investigated for their capacity to provide suitable partition coefficients (K) of the target compounds. In addition, given that the settling time as well as the density difference between the upper and lower phases of each two-phase solvent system are parameters associated with the retention of stationary phase in the column, they were thus estimated and used as selection criteria. For estimating the partition coefficient (Table 1) of the target compound, 2 mg of extract containing the target compounds was dissolved in 2 mL of a given two-phase solvent system (1 mL per each phase). The test tube containing the sample solution was shaken vigorously, and then left, to equilibrate the two phases, for 20 min. Equal volumes of each phase were then analyzed by HPLC-ESI-HRMS to obtain the partition coefficients (K), which were calculated by dividing the peak area of the target compound in the upper phase by the peak area of compound in the lower phase.

Another data set has as its system Aspergillus fumigatus. Briefly: microbe, parasite or virus in culture. The format is cell-based. On the procedure:
(§1) Furthermore, compound 1 was evaluated for its antimicrobial activity against five bacterial isolates; S. aureus (CCM3824), B. subtilis (CCM1999), S. sanguinis (CCM4047), P. aeruginosa (CCM1959), E. coli (CCM2024), and eight fungal isolates; C. friedrichii (BCC020_2879), A. fumigatus (BCC020_2845), F. oxysporum (BCC020_2866), T. harzianum (BCC020_0606), B. sorokiniana (BCC020_1571), M. cucumerina (BCC020_2872), C. globosum (BCC020_2527), and A. alternata (BCC020_0609) using broth two-fold microdilution method following the standard protocol. Briefly, for broth microdilution method, the compounds were serially diluted at varying concentrations between 300 and 0.0732 µg/mL in Mueller Hinton broth (for bacteria) and Muller Hinton broth with 2% glucose (for fungi) in 96-well plates. Culture broth (0.1 mL) was added to each well containing the compound. Plates were incubated aerobically at 37 °C for 16 h (bacteria) and 30 °C for 48 h (for fungi). Negative controls were prepared separately with respective organisms in the same culture media with methanol (the dissolving solvent). Positive controls were also prepared separately with respective organisms. Erythromycin (32–0.0625 µg/mL) was used as positive control for S. aureus and S. sanguinis, gentamycin (32–0.0625 µg/mL) was used as positive control for Bacillus subtilis, E. coli, and P. aeruginosa, whereas fluconazole (32–0.0625 µg/mL) was used as positive control for all the fungal isolates. After incubation, the well with the least concentration of the compound showing any inhibition in the growth was taken as the MIC value for the respective organisms. MIC95 was determined as the concentration required to inhibit or kill 95% of bacterial isolates spectroscopically at 600 nm. Minimum fungicidal concentration (MFCs) were determined after 48 h incubation by removing 10 µL of the contents from wells showing no visible growth and spreading them on to Sabouraud dextrose agar plates. The plates were then incubated for 72 h and MFCs were determined as the concentrations which killed 95–100% of the inoculum. All the experiments were done in triplicate.

A further data set relates to Trichoderma harzianum. Briefly: microbe, parasite or virus in culture. The format is cell-based. Here is the method: as §1
Another data set relates to Monographella cucumerina. The data set is described as follows: microbe, parasite or virus in culture. Format: cell-based. On the procedure:
as §1

The subject of the next data set is Bacillus subtilis. The data set is described as follows: Broth two-fold microdilution. The format is cell-based. To be noted: B. subtilis CCM1999; Mueller Hinton broth, 300–0.0732 µg/mL (control 32–0.0625), 37 °C 16 h, triplicate; MIC = least concentration showing any inhibition in the growth. On the procedure: Furthermore, compound 1 was evaluated for its antimicrobial activity against five bacterial isolates; S. aureus (CCM3824), B. subtilis (CCM1999), S. sanguinis (CCM4047), P. aeruginosa (CCM1959), E. coli (CCM2024), and eight fungal isolates; C. friedrichii (BCC020_2879), A. fumigatus (BCC020_2845), F. oxysporum (BCC020_2866), T. harzianum (BCC020_0606), B. sorokiniana (BCC020_1571), M. cucumerina (BCC020_2872), C. globosum (BCC020_2527), and A. alternata (BCC020_0609) using broth two-fold microdilution method following the standard protocol. Briefly, for broth microdilution method, the compounds were serially diluted at varying concentrations between 300 and 0.0732 µg/mL in Mueller Hinton broth (for bacteria) and Muller Hinton broth with 2% glucose (for fungi) in 96-well plates. Culture broth (0.1 mL) was added to each well containing the compound. […] MIC95 was determined as the concentration required to inhibit or kill 95% of bacterial isolates spectroscopically at 600 nm. Minimum fungicidal concentration (MFCs) were determined after 48 h incubation by removing 10 µL of the contents from wells showing no visible growth and spreading them on to Sabouraud dextrose agar plates. The plates were then incubated for 72 h and MFCs were determined as the concentrations which killed 95–100% of the inoculum. […]

Converted amounts (≈) assume the structure as drawn. *1 amine or outer side, *2 acyl side, *3 side chain or, on linkers, in order; H or OH if unused. Where a SMILES comes first, the peptide text is derived from it. [ ]: non-standard residue; d: D form. X1 = CCCCCC(O)CC(N[*:1])C(O)C(=O)[*:2]; d(aIle) = CC[C@H](C)[C@@H](N)C(=O)O; Dhb = C/C=C(\N)C(=O)O

Take `C/C=C1\NC(=O)[C@H](CO)NC(=O)[C@@H]([C@@H](C)CC)NC(=O)[C@H](Cc2ccccc2)NC(=O)[C@@H]2CCCN2C(=O)CNC(=O)[C@@H](CCC(N)=O)NC(=O)C(O)C(CC(O)CCCCC)NC(=O)[C@@H]2CCCN2C(=O)[C@@H]([C@@H](C)CC)NC(=O)[C@H](CO)NC1=O` (stereo partly drawn) [compound 2, muscotoxin A] (cyclo([Dhb]S[d(aIle)]P[X1][dQ]GPF[d(aIle)]S)): the “Partition Coefficient (K) of Muscotoxins” value in data set [1] (solvent system 1, n-Hex–EtOH–H2O 10:5:5, shake test tube, equilibrated 20 min, K = peak area upper phase/lower phase) stood at 0.03; in data set [1] (solvent system 2, n-Hex–EtOAc–EtOH–H2O 9:1:5:5, shaken, 20 min, K = peak area UP/LP), 0.03; in data set [1] (solvent system 3, n-Hex–EtOAc–EtOH–H2O 8:2:5:5, shaken, 20 min, K = peak area UP/LP), 0.01; in data set [1] (solvent system 4, n-Hex–EtOAc–EtOH–H2O 7:3:5:5, shaken, 20 min, K = peak area UP/LP), 0.06; in data set [1] (solvent system 5, n-Hex–EtOAc–EtOH–H2O 6:4:5:5, shaken, 20 min, K = peak area UP/LP), 0.09; in data set [1] (solvent system 6, n-Hex–EtOAc–EtOH–H2O 5:5:5:5, shaken, 20 min, K = peak area UP/LP) it was 0.01. For the same molecule, the “Partition Coefficient (K) of Muscotoxins” value in data set [1] (solvent system 7, n-Hex–EtOAc–EtOH–H2O 4:5:4:5, shaken, 20 min, K = peak area UP/LP) turned out to be 0.14; in data set [1] (solvent system 8, n-Hex–EtOAc–EtOH–H2O 3:5:3:5, shaken, 20 min, K = peak area UP/LP) it was 0.32; in data set [1] (solvent system 9, n-Hex–EtOAc–EtOH–H2O 2:5:2:5, shaken, 20 min, K = peak area UP/LP), 0.97; in data set [1] (solvent system 10, n-Hex–EtOAc–EtOH–H2O 1:5:1:5, shaken, 20 min, K = peak area UP/LP) it was 0.94; in data set [1] (solvent system 11, n-Hex–EtOAc–EtOH–H2O–AcOH 1:5:1:5:1, shaken, 20 min, K = peak area UP/LP) it was 1.97. For the same molecule, the MIC with Aspergillus fumigatus (A. fumigatus BCC020_2845, Muller Hinton broth with 2% glucose, 300–0.0732 µg/mL (control 32–0.0625), 30 °C 48 h, triplicate, least concentration showing any inhibition) is 2.34 µg/mL (≈ 1.93 µM); in the data set with Trichoderma harzianum (T. harzianum BCC020_0606, Muller Hinton broth with 2% glucose, 300–0.0732 µg/mL (control 32–0.0625), 30 °C 48 h, triplicate, least concentration showing any inhibition) it was 37.5 µg/mL (≈ 31 µM); against Monographella cucumerina (M. cucumerina BCC020_2872, Muller Hinton broth with 2% glucose, 300–0.0732 µg/mL (control 32–0.0625), 30 °C 48 h, triplicate, least concentration showing any inhibition), 2.34 µg/mL (≈ 1.93 µM); with Bacillus subtilis, 37.5 µg/mL (≈ 31 µM). Besides, the MFC with Aspergillus fumigatus (A. fumigatus, 10 µL from wells without visible growth after 48 h spread on Sabouraud dextrose agar, 72 h, kills 95–100% of the inoculum) is given as 37.5 µg/mL (≈ 31 µM); in the data set with Trichoderma harzianum (T. harzianum, 10 µL from wells without visible growth after 48 h spread on Sabouraud dextrose agar, 72 h, kills 95–100% of the inoculum), 300 µg/mL (≈ 248 µM); with Monographella cucumerina (M. cucumerina, 10 µL from wells without visible growth after 48 h spread on Sabouraud dextrose agar, 72 h, kills 95–100% of the inoculum), 75 µg/mL (≈ 61.9 µM).
